Reference: patent publication US20110245213A1, “TREATMENT” (PROVEXIS NATURAL PRODUCTS LIMITED, priority 2008, published 2011)
Several values for one entry are separate records, joined by “and”; a condition that tells them apart may be missing. Equal entries are not always repeated.

Columns and labels:
[1] = system: Smad2 phosphorylation in A549 cells; test: Quantification of pSmad2 protein in A549 cells; format: cell-based; conditions: TGFβ1 alone
[2] = system: TGFβ1/Smad mediated transcription; test: Luciferase reporter gene assay in NIH 3T3 cells with CAGA12-luc plasmid; format: cell-based
Description: NIH 3T3 cells stably transfected with a CAGA12-luc plasmid, which responds to Smad activation (Dennler et al. (1998) Embo J 17: 3091-3100), were cultured in DMEM supplemented with 10% fetal calf serum (FCS), 1% penicillin, 1% streptomycin, 1% L-glutamine and 0.4 mg/ml geneticin. Cells were seeded into complete growth medium in a six-well tissue culture dish for 24 h, after which the medium was replaced with low serum medium (0.5% FCS) containing one of three treatments:
(1) TGFβ1 (to achieve a final concentration of 2 ng ml^−1) in PBS buffer,
(2) (TGFβ1+10 mM DTT in PBS buffer
(3) TGFβ1+2 μM SF in PBS buffer.
To simulate SF pharmacokinetics, all test samples were incubated at 37° C. for 30 minutes prior to dialysis, performed in PBS buffer for 4 hours using Slide-A-Lyzer Dialysis Cassettes MWCO 3.5K (PIERCE, http://www.piercenet.com/). Dialysis reduced SF concentration to 34 nM. As additional controls, cells were treated with PBS without TGFβ1 and PBS with SF (34 nM). The luciferase activity was determined 16 h following treatment using the Luciferase Reporter Gene assay (Roche Applied Science, http://www.roche.com/) in a Perkin Elmer Wallac Victor 2 1420 multilabel counter plate reader (http://las.perkinelmer.com/). Briefly, cells were washed twice with PBS and lysed in cell lysis buffer supplied with the assay. Chemiluminescence was immediately quantified following the addition of luciferase assay substrate. Luciferase values were normalized to protein concentration quantified using the BCA assay (Sigma-Aldrich, http://www.sigmaaldrich.com/). The experiment was repeated four times, with three replicates of each treatment per experiment. Statistical analysis was performed using 1-way ANOVA with the statistical software, R (http://www.R-project.org).

[3] = system: Smad2 phosphorylation in PC3 cells; test: Quantification of pSmad2 protein in PC3 cells; format: cell-based; conditions: for PSmad2 / PSmad2 Normalised to GAPDH: PC3 cells
Description: FIG. 14 represents (a) a photograph of a gel; and (b) the data quantified in a bar chart which corresponds to the data presented in Table 6 as discussed in Example 2 (Expt 2). The data illustrates how an ITC modulates Smad activity. The experiment concerned pre-incubation of TGFβ1 with and without sulforaphane (SF) for 30 minutes before treating PC3 cells for 1 h and then measuring Smad2 phosphorylation (i.e. a function of TGFβ1 activity).
TGFβ1 acts an anti-inflammatory cytokine. It induces phosphorylation of smad proteins that translocate to the nucleus and induce gene expression associated with anti-inflammatory activity. […] Therefore ITCs act as anti-inflammatory mediators.

[4] = biological target: T1, recombinant human transforming growth factor beta 1 (TGFβ1) (Homo sapiens, UniProt P01137); test: Incubation of peptides with isothiocyanates, LC-MS/MS: TGFβ1; format: binding; conditions: for conjugate of TGFβ1 peptide and ITC: PBS pH 7.4, 37° C., 0.5 to 24 hours
T1 construct: TGFβ1 was robustly identified in bands of 25 kDa corresponding to the active dimer; purchased R&D Systems
Description: (§1) Incubations of SF or IB with bovine insulin (P01308, Sigma-Aldrich), recombinant human epidermal growth factor (EGF, P01133, R&D Systems, http://www.rndsystems.com/) and recombinant human transforming growth factor beta 1 (TGFβ1, P01137, R&D Systems) were performed in sodium phosphate-buffered saline solution (pH 7.4) or human blood plasma at 37° C. for 0.5-24 h. Plasma was pre-treated by ultrafiltration to remove high molecular weight proteins (Microcon Ultracel YM-30 filter, MWCO 30,000). Samples were either analyzed directly by LC-MS/MS or by LC-MS/MS analysis of tryptic digests of gel electrophoresis bands.
1 μg aliquots of the TGFβ1 protein, supplied with bovine serum albumin as carrier, were incubated with either DMSO or 1.2 μmoles of SF for 30 minutes at 37° C. and run onto denaturing 4-12% Bis-Tris NuPAGE gels (Invitrogen, http://www.invitrogen.com). Bands were excised and digested with trypsin (Promega, http://www.promega.com/) after reduction with dithiothreitol (DTT) and alklyation with iodoacetamide (Sigma-Aldrich, http://www.sigmaaldrich.com/). Extracted peptides were lyophilized and re-dissolved in 1% acetonitrile, 0.1% formic acid for analysis by mass spectrometry. LC-MS/MS analysis was performed using a LTQ mass spectrometer (Thermo Electron Corporation, http://www.thermo.com/) and a nanoflow-HPLC system (Surveyor, Thermo Electron). Peptides were applied to a precolumn (C18 pepmap100, LC Packings, http://www.lcpackings.com/) connected to a self-packed C18 8-cm analytical column (BioBasic resin ThermoElectron; Picotip 75 μm id, 15 μm tip, New Objective, http://www.newobjective.com/). Peptides were eluted by a gradient of 2 to 30% acetonitrile in 0.1% formic acid over 40 min at a flow rate of approximately 250 nL min^−1. Data-dependent acquisition of MS/MS consisted of selection of the five most abundant ions in each cycle: MS mass-to-charge ratio (m/z) 300 to 2000, minimum signal 1000, collision energy 25, 5 repeat hits, 300 sec exclusion.

[5] = following broccoli consumption, cited from earlier work
[6] = biological target: T2, recombinant human epidermal growth factor (EGF) (Homo sapiens, UniProt P01133); test: Incubation of peptides with isothiocyanates, LC-MS/MS: EGF; format: binding; conditions: for conjugate of EGF peptide and ITC: PBS pH 7.4, 37° C., 0.5 to 24 hours
T2 construct: addition of SF to the N-terminal asparagines residue (m/z 309) of EGF; purchased R&D Systems
Description: as §1
(§2) The LC system used was a Shimadzu series 10AD VP (Shimadzu, http://www.shimadzu.com/). The column was an ACE 300 C18, 150×2.1 mm (5 μm particle size) used at 40° C. Mobile phase A was 0.1% formic acid in water, mobile phase B, 0.1% formic acid in acetonitrile and the flow rate was 0.25 ml/min. A linear gradient was used from 25% B to 35% B over 0 to 5 min, then a further gradient from 35% B to 99% B over 6 min followed by 99% B for 4 min. The column was re-equilibrated for a total of 3 min. The injection volume was between 5-20 μl. All MS experiments were conducted on a 4000 QTRAP hybrid triple-quadrupole linear ion trap mass spectrometer using Analyst version 1.4.1 software (Applied Biosystems, http://www.appliedbiosystems.com/) equipped with a TurboIon source used in positive ion electrospray mode. The probe capillary voltage was optimized at 4200 V, desolvation temperature set to 400° C., curtain gas, nebulizing and turbo spray gas were set to 40, 10 and 20, respectively (arbitrary values). […] The peak-width was set on Q1 and Q3 at 1.0 Th (measured at half height) for all MS and MS/MS experiments. Spectra were obtained over the range m/z 800-2000 with scan times of 1-2 sec. […]

[7] = system: EGF receptor phosphorylation in BPH1 cells (hyperplastic prostate cells); conditions: BPH cells
bovine insulin = biological target: T3, bovine insulin (Bos taurus, UniProt P01317); test: Incubation of peptides with isothiocyanates, LC-MS/MS: insulin; format: binding; conditions: for conjugate of insulin peptide and ITC: PBS pH 7.4, 37° C., 0.5 to 24 hours
T3 construct: m/z 325.2 corresponds to Phe-SF, the N-terminal amino acid of insulin B chain; m/z 235.0 corresponds to Gly-SF, the N-terminal amino acid of insulin A chain; purchased Sigma-Aldrich
Description: as §1, §2

[8] = TGFβ1 + 2 μM SF, pre-incubated 30 minutes, cells treated 1 h
[9] = TGFβ1 + 10 μM SF, pre-incubated 30 minutes, cells treated 1 h

T1 sequence (P01137 279-390 limits assumed): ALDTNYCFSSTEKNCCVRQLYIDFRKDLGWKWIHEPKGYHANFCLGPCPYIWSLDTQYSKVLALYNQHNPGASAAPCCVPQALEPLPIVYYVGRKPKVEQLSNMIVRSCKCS
T3 sequence (P01317 25-54 limits assumed): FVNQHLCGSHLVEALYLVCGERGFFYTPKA
T3 sequence (P01317 85-105 limits assumed): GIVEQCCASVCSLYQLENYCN
T2 sequence (P01133 971-1023 limits assumed): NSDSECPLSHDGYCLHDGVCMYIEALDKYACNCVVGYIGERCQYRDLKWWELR

TGFβ1: recombinant human transforming growth factor beta 1 (P01137, R&D Systems)
PSmad2 [1]: 1570 counts/mm^2
PSmad2 Normalised to GAPDH [1]: 0.1320
luciferase activity ([2]; TGFβ1 alone, 2 ng ml^−1): induced luciferase activity
PSmad2 ([3]; TGFβ1 alone, 1 h): 6154 counts/mm^2 and 10910 counts/mm^2 and 7089 counts/mm^2
PSmad2 Normalised to GAPDH ([3]; TGFβ1 alone, 1 h): 0.1039 and 0.1722 and 0.1398

C[S+]([O-])CCCCN=C=S (stereo not shown) [SF, sulforaphane]
modification of TGFβ1 (tryptic N-terminal peptide, LC-MS/MS) ([4]; 1 μg TGFβ1 with 1.2 μmoles of SF, 30 minutes at 37° C., SDS-PAGE, trypsin): N-terminal modification
conjugate of TGFβ1 peptide and ITC [4]: formation of a covalently bound conjugate
Smad-mediated transcription (luciferase) compared to TGFβ1 alone ([2]; TGFβ1 pre-incubated with 2 μM SF for 30 minutes followed by dialysis (SF 34 nM)): increase in Smad-mediated transcription
Smad-mediated transcription (luciferase) ([2]; residual SF (34 nM) alone, without TGFβ1): did not result in enhanced transcription
SF in the plasma that occurs as free SF, as opposed to thiol conjugates [5]: 45%
peak concentration of SF and its thiol conjugates ([5]; plasma): less than 2 μM
expression of pSmad2 compared to TGFβ1 alone ([3]; PC3 cell line, co-exposure to TGFβ1 and SF): enhances expression of psamd2
PSmad2 [3, 8]: 8179 counts/mm^2 and 12578 counts/mm^2 and 11881 counts/mm^2
PSmad2 Normalised to GAPDH [3, 8]: 0.1772 and 0.2807 and 0.3091
PSmad2 [3, 9]: 13595 counts/mm^2 and 16870 counts/mm^2 and 15049 counts/mm^2
PSmad2 Normalised to GAPDH [3, 9]: 0.2602 and 0.2810 and 0.3104
conjugate of EGF peptide and ITC [6]: formation of a covalently bound conjugate
EGF conjugates (N-terminal asparagine) by LC-MS/MS ([6]; human plasma): formation of EGF conjugates with SF
reduction in EGF receptor phosphorylation ([7]; 10 μmol/L sulforaphane, 10 mg/L EGF, 10 minute timecourse): approximately threefold
amount of phosphorylated EGF receptor compared to EGF alone ([7]; pre-incubation of EGF with ITC): reduces the amount of phosphorylated receptor
conjugate of insulin peptide and ITC (bovine insulin): formation of a covalently bound conjugate
insulin-ITC conjugates (N-terminal Gly and Phe) by LC-MS/MS (bovine insulin; human plasma depleted of high MW proteins): appearance of two insulin-SF conjugates

C[S+]([O-])CCCN=C=S (stereo not shown) [IB, iberin]
conjugate of TGFβ1 peptide and ITC [4]: formation of a covalently bound conjugate
conjugate of EGF peptide and ITC [6]: formation of a covalently bound conjugate
conjugate of insulin peptide and ITC (bovine insulin): formation of a covalently bound conjugate
